According to patent US8865688B2, “Compositions and methods for treatment of bowel diseases with granulated mesalamine” (priority 2008, dated 2014):
Where “and” joins values, the source holds several entries; their conditions need not be identical. Equal values may be shown once. Read-outs that look alike come from different tables or passages of the source. Values belong to the molecule of their own block, whether it stands above or below them.

Tests used:
[1] = Single and multiple oral dose pharmacokinetics of 1.5 g granulated mesalamine formulation, crossover, healthy subjects, fasting; settings: for AUC(0-t): AUC0-24, plasma, n = 24; for AUC(0-t) / Cmax: mean ±SD; for Tmax: median (range)
CYP1A2 = target: T1, CYP1A2 (Homo sapiens, UniProt P05177); experiment: In vitro drug-drug interaction study, human liver microsomes; format: in vitro ADME
T1 construct: In an in vitro study using human liver microsomes; from tissue; host or cells: human liver microsomes
T1 sequence (P05177 1-516): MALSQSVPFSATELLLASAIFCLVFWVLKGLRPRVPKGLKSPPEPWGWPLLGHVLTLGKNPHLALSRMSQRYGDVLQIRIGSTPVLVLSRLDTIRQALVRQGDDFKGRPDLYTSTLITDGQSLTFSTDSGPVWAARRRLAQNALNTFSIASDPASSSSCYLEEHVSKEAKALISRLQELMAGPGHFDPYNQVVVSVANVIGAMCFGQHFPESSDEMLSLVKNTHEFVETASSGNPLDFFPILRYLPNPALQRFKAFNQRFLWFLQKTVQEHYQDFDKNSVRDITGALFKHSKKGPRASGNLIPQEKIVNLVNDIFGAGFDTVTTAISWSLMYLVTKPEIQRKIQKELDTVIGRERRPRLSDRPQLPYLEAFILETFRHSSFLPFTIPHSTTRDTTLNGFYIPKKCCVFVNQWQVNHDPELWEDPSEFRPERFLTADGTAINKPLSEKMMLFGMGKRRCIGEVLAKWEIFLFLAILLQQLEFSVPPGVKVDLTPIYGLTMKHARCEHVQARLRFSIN

[2] = Effect of high fat meal on absorption of 1.6 g mesalamine granules in sachet, crossover, healthy subjects; format: in vivo, human; settings: for Tmax following a high-fat meal: 1.6 g granulated mesalamine (2×0.8 g); for Effect of high fat meal on plasma Cmax: fed vs fasted, 80%:125% rule
CYP3A4 = CYP3A4 (Homo sapiens, UniProt P08684); experiment: In vitro drug-drug interaction study, human liver microsomes; format: in vitro ADME
CYP3A4, sequence (P08684 whole entry): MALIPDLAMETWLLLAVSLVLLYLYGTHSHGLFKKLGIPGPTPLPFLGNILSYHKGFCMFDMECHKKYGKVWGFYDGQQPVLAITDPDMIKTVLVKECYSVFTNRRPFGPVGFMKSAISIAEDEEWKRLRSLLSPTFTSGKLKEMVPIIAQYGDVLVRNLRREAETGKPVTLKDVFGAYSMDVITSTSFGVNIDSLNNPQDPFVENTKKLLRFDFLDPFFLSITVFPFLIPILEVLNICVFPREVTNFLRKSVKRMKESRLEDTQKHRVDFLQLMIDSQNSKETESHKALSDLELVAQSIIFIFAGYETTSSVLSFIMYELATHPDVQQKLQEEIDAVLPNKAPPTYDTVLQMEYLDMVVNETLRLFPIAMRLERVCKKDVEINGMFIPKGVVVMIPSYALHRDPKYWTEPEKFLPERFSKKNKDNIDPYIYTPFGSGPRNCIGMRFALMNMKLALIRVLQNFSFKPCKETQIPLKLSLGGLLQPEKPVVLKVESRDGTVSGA

CYP2C19 = CYP2C19 (Homo sapiens, UniProt P33261); experiment: as above; format: in vitro ADME
CYP2C19, sequence (P33261 whole entry): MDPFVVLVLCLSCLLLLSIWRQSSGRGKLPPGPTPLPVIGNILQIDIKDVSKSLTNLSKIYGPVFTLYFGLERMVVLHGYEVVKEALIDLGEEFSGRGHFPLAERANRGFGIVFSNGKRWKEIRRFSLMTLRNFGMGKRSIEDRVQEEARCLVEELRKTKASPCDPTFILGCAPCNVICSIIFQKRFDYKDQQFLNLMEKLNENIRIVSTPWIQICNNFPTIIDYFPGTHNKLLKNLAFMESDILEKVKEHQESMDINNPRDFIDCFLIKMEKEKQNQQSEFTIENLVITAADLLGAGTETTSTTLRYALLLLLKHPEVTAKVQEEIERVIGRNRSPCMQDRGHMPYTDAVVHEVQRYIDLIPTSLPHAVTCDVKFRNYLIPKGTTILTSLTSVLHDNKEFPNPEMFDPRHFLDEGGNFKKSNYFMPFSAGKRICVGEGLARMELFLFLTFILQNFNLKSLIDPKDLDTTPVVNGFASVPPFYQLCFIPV

in vitro = settings: plasma
[3] = Detection in human breast milk; settings: in vivo
clinical [4] = settings: human, in vivo, 1600 mg
CYP2C9 = CYP2C9 (Homo sapiens, UniProt P11712); experiment: In vitro drug-drug interaction study, human liver microsomes; format: in vitro ADME
CYP2C9, sequence (P11712 whole entry): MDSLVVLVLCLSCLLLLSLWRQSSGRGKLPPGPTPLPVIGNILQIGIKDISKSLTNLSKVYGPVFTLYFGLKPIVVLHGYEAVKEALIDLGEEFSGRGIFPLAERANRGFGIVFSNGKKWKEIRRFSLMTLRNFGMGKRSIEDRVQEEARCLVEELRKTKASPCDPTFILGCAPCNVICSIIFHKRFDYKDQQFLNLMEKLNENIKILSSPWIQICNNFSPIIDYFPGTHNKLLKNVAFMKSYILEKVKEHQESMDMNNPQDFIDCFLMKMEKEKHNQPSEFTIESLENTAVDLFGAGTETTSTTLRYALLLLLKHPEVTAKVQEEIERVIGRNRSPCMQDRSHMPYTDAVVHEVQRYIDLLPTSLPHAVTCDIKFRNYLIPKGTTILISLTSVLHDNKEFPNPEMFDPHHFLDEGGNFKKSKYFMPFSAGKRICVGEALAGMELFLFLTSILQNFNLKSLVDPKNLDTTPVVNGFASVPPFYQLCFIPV

CYP2D6 = CYP2D6 (Homo sapiens, UniProt P10635); experiment: as above; format: in vitro ADME
CYP2D6, sequence (P10635 whole entry): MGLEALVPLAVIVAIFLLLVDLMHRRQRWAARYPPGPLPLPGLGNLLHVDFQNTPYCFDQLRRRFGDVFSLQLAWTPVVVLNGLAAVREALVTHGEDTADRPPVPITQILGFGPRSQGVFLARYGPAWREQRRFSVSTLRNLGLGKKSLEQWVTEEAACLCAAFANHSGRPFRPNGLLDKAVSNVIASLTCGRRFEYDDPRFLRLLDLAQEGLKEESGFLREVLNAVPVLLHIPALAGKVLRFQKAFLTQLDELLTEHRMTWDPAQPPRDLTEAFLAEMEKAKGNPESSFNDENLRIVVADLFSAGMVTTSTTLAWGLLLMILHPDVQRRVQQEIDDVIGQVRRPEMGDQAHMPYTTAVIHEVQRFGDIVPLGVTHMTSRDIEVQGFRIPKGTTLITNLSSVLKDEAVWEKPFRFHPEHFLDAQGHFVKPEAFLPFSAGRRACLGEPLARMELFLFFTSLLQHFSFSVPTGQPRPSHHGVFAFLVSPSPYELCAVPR

[5] = human, in vivo, 1600 mg
[6] = Steady state pharmacokinetics, 3 treatments of 4 days: Asacol 800 mg BID, granulated mesalamine formulation 800 mg BID and 1600 mg QD; format: in vivo, human; settings: for Systemic exposure, QD versus BID regimen: granulated mesalamine formulation 1600 mg QD vs 800 mg BID; for Tmax: median (range)
Procedure: In a study of 3 treatments in 3 study periods, each separated by a minimum washout of 7 days, treatments were administered orally, and were as follows:
Subjects received treatments A, B, and C, with each administered during one of the three 4-day study treatment periods.
Each treatment regimen lasted for 4 days and was followed by at least a 7 day washout period.

rats [7] = settings: rat, in vivo
mice [8] = settings: mouse, in vivo
[9] = human, in vivo
clinical [10] = settings: human, in vivo
dogs = experiment: 26-week and 52-week oral toxicity studies (renal toxicity); format: in vivo; settings: oral 60 mg/kg/day (about 1.1 times the human dose) or higher
Description: (§1) Animal studies with mesalamine (13-week and 26-week oral toxicity studies in rats, and 26-week and 52-week oral toxicity studies in dogs) have shown the kidney to be the major target organ of mesalamine toxicity.

Ames test = format: cell-based
Procedure: (§2) These doses are about 2.6 and 5.4 times the recommended human dose of granulated mesalamine capsules of 1.5 g/day (30 mg/kg if 50 kg body weight assumed or 1110 mg/m^2), respectively, based on body surface area. Mesalamine was negative in the Ames test, the mouse lymphoma cell (L5178Y/TK+/−) forward mutation test, the sister chromatid exchange assay in the Chinese hamster bone marrow test, and the mouse bone marrow micronucleus test.

rats [11] = experiment: Fertility and reproductive performance study; format: in vivo; settings: oral doses up to 320 mg/kg
rats [12] = experiment: 13-week and 26-week oral toxicity studies (renal toxicity); format: in vivo
Description: as §1

rats [13] = experiment: Reproduction studies; settings: rat, in vivo
rabbits = experiment: Reproduction studies; settings: rabbit, in vivo
[14] = In vitro plasma protein binding
[15] = tested on: mouse lymphoma cell (L5178Y/TK+/−); experiment: Mouse lymphoma cell forward mutation test; format: cell-based
Procedure: as §2

[16] = tested on: Chinese hamster bone marrow; experiment: Sister chromatid exchange assay in the Chinese hamster bone marrow test; settings: in vivo
Procedure: as §2

rats [17] = experiment: Dietary carcinogenicity study; format: in vivo; settings: doses as high as 480 mg/kg/day
Procedure: as §2

mice [18] = experiment: Dietary carcinogenicity study; format: in vivo; settings: 2000 mg/kg/day
Procedure: as §2

[19] = human, plasma, oral, 1.5 g, multiple dose 1.5 g QD, after 7 days
[20] = human, plasma, oral, 1.5 g, single dose 1.5 g
[21] = MP 1600 mg QD versus MP 800 mg BID, geometric mean ratio
[22] = granulated mesalamine formulation
[23] = granulated mesalamine formulation administered BID
[24] = granulated mesalamine formulation administered QD
[25] = human, plasma, oral, 800 mg, AUCC, Day 4, after MP 800 mg BID, converted from μmol * h/L, read-out: AUC
[26] = human, plasma, oral, 800 mg, AUCC, Day 4, after Treatment A Asacol 800 mg BID, mean ± SD, read-out: AUC
[27] = human, plasma, oral, 800 mg, AUCC, Day 4, after Treatment B MP 800 mg BID, mean ± SD, read-out: AUC
[28] = human, plasma, oral, 800 mg, Day 4, after Asacol 800 mg BID, converted from μmol/L, mean ± SD
[29] = human, plasma, oral, 800 mg, Day 4, after MP 800 mg BID, converted from μmol/L, mean ± SD
[30] = human, plasma, oral, 800 mg, plasma, Day 4, after Treatment A Asacol 800 mg BID, n = 28, mean ± SD
[31] = human, plasma, oral, 800 mg, plasma, Day 4, after Treatment B MP 800 mg BID, n = 28, mean ± SD
[32] = human, plasma, oral, 1600 mg, AUC0-24, Day 4, after MP 1600 mg QD, converted from μmol * h/L, read-out: AUC
[33] = human, plasma, oral, 1600 mg, AUC0-24, Day 4, after Treatment C MP 1600 mg QD, mean ± SD, read-out: AUC
[34] = human, plasma, oral, 1600 mg, Day 4, after MP 1600 mg QD, converted from μmol/L, mean ± SD
[35] = human, plasma, oral, 1600 mg, plasma, Day 4, after Treatment C MP 1600 mg QD, n = 28, mean ± SD
[36] = human, plasma, oral, Day 4, after MP 800 mg BID, time from first dose, read-out: Tmax
[37] = human, plasma, oral, Day 4, after MP 1600 mg QD, read-out: Tmax

Increase in systemic exposure (AUC0-24) at steady state compared with a single dose ([1]; 1.5 g granulated mesalamine formulation): 1.7 fold | AUC(0-inf) ([1]; human, plasma, oral, 1.5 g): 51000 ± 23000 ng·h/mL | AUC(0-t) [1, 19]: 37000 ± 9000 ng·h/mL | AUC(0-t) ([1]; human, plasma, oral, 1.5 g, single dose 1.5 g granulated mesalamine formulation, fasting): 26000 ± 6000 ng·h/mL | Cmax ([1]; human, plasma, oral, 1.5 g, plasma, multiple dose 1.5 g QD, after 7 days): 3400 ± 900 ng/mL | Cmax [1, 20]: 2800 ± 800 ng/mL | half-life ([1]; human, plasma, oral, 1.5 g, Mean half-lives, following single and multiple doses of granulated mesalamine formulation): 12 to 14 h | Tmax [1, 19]: 5 h | Tmax [1, 20]: 4 h | half-life ([1]; human, plasma, oral, 1.5 g, t1/2, multiple dose 1.5 g QD, after 7 days, harmonic mean (pseudo SD)): 14 ± 10 h | half-life ([1]; human, plasma, oral, 1.5 g, t1/2, single dose 1.5 g, harmonic mean (pseudo SD)): 12 ± 11 h | Inhibition of CYP1A2 (CYP1A2): not to inhibit | Tmax following a high-fat meal [2]: prolonged | Effect of high fat meal on overall (rate and) extent of absorption ([2]; 1.6 g granules): not affected | Effect of high fat meal on plasma Cmax ([2]; 1.6 g granules): equivalent | Inhibition of CYP3A4 (CYP3A4): not to inhibit | Inhibition of CYP2C19 (CYP2C19): not to inhibit | fraction unbound at 2.5 μg/mL (in vitro): 0.22 | Concentration detected in human breast milk [3]: higher concentrations | half-life (clinical [4]): 10.1 h | Inhibition of CYP2C9 (CYP2C9): not to inhibit | Inhibition of CYP2D6 (CYP2D6): not to inhibit | T1/2 [5]: 10.05 h | AUC C/B Ratio (90% CI) [6, 21]: 93 (78, 112) | Cmax C/B Ratio (90% CI) [6, 21]: 118 (98, 143) | Steady state plasma concentrations as measured by Cmax, QD compared to BID [6, 22]: higher | Systemic exposure, QD versus BID regimen [6]: comparable | Time to maximum drug concentrations, mean [6, 23]: 11.68 h | Time to maximum drug concentrations, mean [6, 24]: 5.21 h | Cmax ratio, QD compared to BID ([6]; granulated mesalamine formulation, steady state): 118% | AUC ([6]; human, plasma, oral, 800 mg, AUC, AUCC, Day 4, after Asacol 800 mg BID, converted from μmol * h/L): 30700 ± 22200 ng·h/mL | AUC [6, 25]: 46400 ± 15400 ng·h/mL | AUC [6, 26]: 158 ± 114 µM·h | AUC [6, 27]: 238 ± 79.1 µM·h | Cmax [6, 28]: 2340 ± 1800 ng/mL | Cmax [6, 29]: 3610 ± 1230 ng/mL | Cmax [6, 30]: 12 ± 9.22 µM | Cmax [6, 31]: 18.5 ± 6.31 µM | AUC [6, 32]: 45800 ± 19700 ng·h/mL | AUC [6, 33]: 235 ± 101 µM·h | Cmax [6, 34]: 4500 ± 1820 ng/mL | Cmax [6, 35]: 23.1 ± 9.35 µM | Tmax [6, 36]: 16 h | Tmax [6, 37]: 3 h
Compound: CC(=O)Nc1ccc(O)c(C(=O)O)c1 [N-Ac-5-ASA, N-acetyl-5-aminosalicylic acid]

Compound: Nc1ccc(O)c(C(=O)O)c1 [Mesalamine (5-ASA), 5-aminosalicylic acid]
Lethal single oral dose (rats [7]): 1800 mg/kg | t1/2 ([1]; single dose 1.5 g, harmonic mean (pseudo SD)): 9 ± 7 h | Lethal single oral dose (mice [8]): 800 mg/kg | Inhibition of CYP1A2 (CYP1A2): not to inhibit | Increase in AUC0-inf following a high-fat meal ([2]; 1.6 g granulated mesalamine): 11% | Increase in AUC0-last following a high-fat meal ([2]; 1.6 g granulated mesalamine): 16% | Tmax following a high-fat meal [2]: prolonged | Increase in cumulative urinary excretion with a high fat meal ([2]; 1.6 g granules): 27% | Effect of high fat meal on plasma Cmax ([2]; 1.6 g granules, listed as 5-ASA): did not affect | Effect of high fat meal on plasma Cmax ([2]; 1.6 g granules, listed as mesalamine): equivalent | Increase in systemic exposure (AUC0-24) at steady state compared with a single dose [9]: 1.5 fold | AUC(0-inf) (clinical [10]): 14000 ± 5000 ng·h/mL | AUC(0-t) (clinical [10]; AUC0-24): 11000 ± 5000 ng·h/mL | Cmax (clinical [10]; Cmax): 2100 ± 1100 ng/mL | Tmax (clinical [10]; Tmax): 4 h | Renal finding (dogs): renal lesions including tubular atrophy, interstitial cell infiltration, chronic nephritis, and papillary necrosis | Inhibition of CYP3A4 (CYP3A4): not to inhibit | Ames test result (Ames test): negative | Inhibition of CYP2C19 (CYP2C19): not to inhibit | Effect on fertility or reproductive performance (rats [11]): no effect | Renal finding (rats [12]; oral 40 mg/kg/day (about 0.20 times the human dose)): minimal to slight tubular injury | Renal finding (rats [12]; oral 160 mg/kg/day (about 0.90 times the human dose) or higher): renal lesions including tubular degeneration, tubular mineralization, and papillary necrosis | Reproduction study finding (rats [13]): no evidence of impaired fertility or harm to the fetus | Concentration detected in human breast milk [3]: low concentrations | Reproduction study finding (rabbits): no evidence of impaired fertility or harm to the fetus | half-life (clinical [4]): 5.49 h | Inhibition of CYP2C9 (CYP2C9): not to inhibit | fraction unbound at 2.5 μg/mL [14]: 0.57 | Forward mutation test result [15]: negative | Sister chromatid exchange assay result [16]: negative | Carcinogenicity (rats [17]): not carcinogenic | Carcinogenicity (mice [18]): not carcinogenic | Inhibition of CYP2D6 (CYP2D6): not to inhibit | T1/2 [5]: 5.49 h | Tmax ([6]; Day 4, after Asacol 800 mg BID): 16.0 (0, 24.0) h and 16.0 (0, 24.0)^e h | Steady state plasma concentrations as measured by Cmax, QD compared to BID [6, 22]: higher | Systemic exposure, QD versus BID regimen [6]: comparable | Time to maximum drug concentrations, mean [6, 23]: 11.00 h | Time to maximum drug concentrations, mean [6, 24]: 3.96 h | AUC ([6]; human, plasma, oral, 800 mg, AUCC, Day 4, after Asacol 800 mg BID, converted from μmol * h/L, read-out: AUC): 8.34 ± 7.5 ng·h/mL | AUC [6, 25]: 14800 ± 5500 ng·h/mL | AUC [6, 26]: 54.5 ± 49 µM·h | AUC [6, 27]: 97 ± 35.9 µM·h | Cmax [6, 28]: 1060 ± 1370 ng/mL | Cmax [6, 29]: 1820 ± 710 ng/mL | Cmax [6, 30]: 6.93 ± 8.99 µM | Cmax [6, 31]: 11.9 ± 4.65 µM | AUC [6, 32]: 14800 ± 6490 ng·h/mL | AUC [6, 33]: 96.5 ± 42.4 µM·h | Cmax [6, 34]: 3040 ± 1670 ng/mL | Cmax [6, 35]: 19.9 ± 10.9 µM | Tmax [6, 36]: 16 h | Tmax [6, 37]: 3 h
